Source: ChEMBL document CHEMBL5500372, “Novel natural osthole-inspired amphiphiles as membrane targeting antibacterials against methicillin-resistant Staphylococcus aureus (MRSA)” (Eur J Med Chem, 2024)
Active and inactive are the calls of the source. The calls are words filed in the database; no cut-off is given here.

Experiments:
Staphylococcus aureus [1] = experiment: Antibacterial activity against Staphylococcus aureus ATCC 29213 at 128 ug/ml measured after 20 passages by CLSI micro broth dilution method; assay type: functional, organism-based; settings: dose 128.0 µg/ml
Cell membrane [2] = experiment: Induction of cytoplasmic membrane depolarization in methicillin-resistant Staphylococcus aureus clinical isolate 16 assessed as increase in fluorescence intensity measured after 35 mins by DiSC3-5 dye based fluorescence method; assay type: cell membranes
Cell membrane [3] = experiment: Induction of cytoplasmic membrane permeabilization in methicillin-resistant Staphylococcus aureus clinical isolate 16 assessed as increase in fluorescence intensity measured after 35 mins by SYTOX green dye based fluorescence analysis
[4] = Selectivity index, ratio of HC50 for hemolytic activity in sheep erythrocyte assessed as hemolysis to MIC for antibacterial activity against Staphylococcus aureus ATCC 29213; assay type: toxicity; settings: sheep erythrocytes, read-out: Selectivity Index
Staphylococcus aureus [5] = experiment: Antibacterial activity against methicillin-resistant Staphylococcus aureus clinical isolate 12 measured after 18 hrs by CLSI based broth microdilution method; assay type: functional
Staphylococcus aureus [6] = experiment: Antibacterial activity against methicillin-resistant Staphylococcus aureus clinical isolate 22 measured after 18 hrs by CLSI based broth microdilution method; assay type: functional
Escherichia coli = experiment: Antibacterial activity against Escherichia coli ATCC 25922 measured after 18 hrs by CLSI based broth microdilution method; assay type: functional
Staphylococcus aureus [7] = experiment: Antibacterial activity against methicillin-resistant Staphylococcus aureus clinical isolate 14 measured after 18 hrs by CLSI based broth microdilution method; assay type: functional
Staphylococcus aureus [8] = experiment: Antibacterial activity against Staphylococcus aureus ATCC 29213 measured after 18 hrs by CLSI based broth microdilution method; assay type: functional
Staphylococcus aureus [9] = experiment: Antibacterial activity against methicillin-resistant Staphylococcus aureus clinical isolate 23 measured after 18 hrs by CLSI based broth microdilution method; assay type: functional
Staphylococcus aureus [10] = experiment: Antibacterial activity against methicillin-resistant Staphylococcus aureus clinical isolate 17 measured after 18 hrs by CLSI based broth microdilution method; assay type: functional
[11] = Hemolytic activity in sheep erythrocyte assessed as hemolysis incubated for 1 hr by absorbance based analysis; assay type: toxicity, cell-based, Ovis aries; settings: sheep erythrocytes
Staphylococcus aureus [12] = experiment: Antibacterial activity against methicillin-resistant Staphylococcus aureus clinical isolate 20 measured after 18 hrs by CLSI based broth microdilution method; assay type: functional
Staphylococcus aureus [13] = experiment: Antibacterial activity against methicillin-resistant Staphylococcus aureus clinical isolate 13 measured after 18 hrs by CLSI based broth microdilution method; assay type: functional
Staphylococcus aureus [14] = experiment: Antibacterial activity against methicillin-resistant Staphylococcus aureus clinical isolate 11 measured after 18 hrs by CLSI based broth microdilution method; assay type: functional
Staphylococcus aureus [15] = experiment: Antibacterial activity against methicillin-resistant Staphylococcus aureus clinical isolate 21 measured after 18 hrs by CLSI based broth microdilution method; assay type: functional
Staphylococcus aureus [16] = experiment: Antibacterial activity against methicillin-resistant Staphylococcus aureus clinical isolate 16 measured after 18 hrs by CLSI based broth microdilution method; assay type: functional

CCn1cc(C(=O)O)c(=O)c2cc(F)c(N3CCNCC3)cc21
Activity (Staphylococcus aureus [1]): Active

CC[C@H](C)[C@H](NC(=O)CN)C(=O)NCC(=O)N[C@@H](C)C(=O)N[C@H](C(=O)N[C@@H](CC(C)C)C(=O)N[C@@H](CCCCN)C(=O)N[C@H](C(=O)N[C@@H](CC(C)C)C(=O)N[C@H](C(=O)N[C@H](C(=O)NCC(=O)N[C@@H](CC(C)C)C(=O)N1CCC[C@H]1C(=O)N[C@@H](C)C(=O)N[C@@H](CC(C)C)C(=O)N[C@H](C(=O)N[C@@H](CO)C(=O)N[C@@H](Cc1c[nH]c2ccccc12)C(=O)N[C@H](C(=O)N[C@@H](CCCCN)C(=O)N[C@@H](CCCNC(=N)N)C(=O)N[C@@H](CCCCN)C(=O)N[C@@H](CCCNC(=N)N)C(=O)N[C@@H](CCC(N)=O)C(=O)N[C@@H](CCC(N)=O)C(N)=O)[C@@H](C)CC)[C@@H](C)CC)[C@@H](C)O)[C@@H](C)O)C(C)C)C(C)C
Activity (Cell membrane [2]): Active
Activity (Cell membrane [3]): Active

CCCCCCNC(=O)C[N+](C)(C)CCCOc1ccc2ccc(=O)oc2c1CC=C(C)C.[Br-]
selectivity ratio [4]: > 320
MIC (Staphylococcus aureus [5]): 8 µg/mL
MIC (Staphylococcus aureus [6]): 4 µg/mL
MIC (Escherichia coli): 32 µg/mL
MIC (Staphylococcus aureus [7]): 4 µg/mL
MIC (Staphylococcus aureus [8]): 4 µg/mL
MIC (Staphylococcus aureus [9]): 4 µg/mL
MIC (Staphylococcus aureus [10]): 4 µg/mL
HC50 at 1 h [11]: > 1280 µg/mL
MIC (Staphylococcus aureus [12]): 4 µg/mL
MIC (Staphylococcus aureus [13]): 8 µg/mL
MIC (Staphylococcus aureus [14]): 4 µg/mL
MIC (Staphylococcus aureus [15]): 4 µg/mL
MIC (Staphylococcus aureus [16]): 4 µg/mL

CCCCCNC(=O)C[N+](C)(C)CCCCCOc1ccc2ccc(=O)oc2c1CC=C(C)C.[Br-]
selectivity ratio [4]: > 320
MIC (Staphylococcus aureus [5]): 4 µg/mL
MIC (Staphylococcus aureus [6]): 2 µg/mL
MIC (Escherichia coli): 64 µg/mL
MIC (Staphylococcus aureus [7]): 2 µg/mL
MIC (Staphylococcus aureus [8]): 4 µg/mL
MIC (Staphylococcus aureus [9]): 2 µg/mL
MIC (Staphylococcus aureus [10]): 4 µg/mL
HC50 at 1 h [11]: > 1280 µg/mL
MIC (Staphylococcus aureus [12]): 64 µg/mL
MIC (Staphylococcus aureus [13]): 4 µg/mL
MIC (Staphylococcus aureus [14]): 4 µg/mL
MIC (Staphylococcus aureus [15]): 2 µg/mL
MIC (Staphylococcus aureus [16]): 2 µg/mL

CCCCNC(=O)C[N+](C)(C)CCCCOc1ccc2ccc(=O)oc2c1CC=C(C)C.[Br-]
selectivity ratio [4]: > 40
MIC (Staphylococcus aureus [5]): 32 µg/mL
MIC (Staphylococcus aureus [6]): 16 µg/mL
MIC (Escherichia coli): 128 µg/mL
MIC (Staphylococcus aureus [7]): 16 µg/mL
MIC (Staphylococcus aureus [8]): 32 µg/mL
MIC (Staphylococcus aureus [9]): 16 µg/mL
MIC (Staphylococcus aureus [10]): 16 µg/mL
HC50 at 1 h [11]: > 1280 µg/mL
MIC (Staphylococcus aureus [12]): 16 µg/mL
MIC (Staphylococcus aureus [13]): 32 µg/mL
MIC (Staphylococcus aureus [14]): 16 µg/mL
MIC (Staphylococcus aureus [15]): 16 µg/mL
MIC (Staphylococcus aureus [16]): 16 µg/mL

CC(C)=CCc1c(OCCC[N+](C)(C)CC(=O)N(CC(C)C)CC(C)C)ccc2ccc(=O)oc12.[Br-]
selectivity ratio [4]: > 320
MIC (Staphylococcus aureus [5]): 8 µg/mL
MIC (Staphylococcus aureus [6]): 4 µg/mL
MIC (Escherichia coli): 128 µg/mL
MIC (Staphylococcus aureus [7]): 4 µg/mL
MIC (Staphylococcus aureus [8]): 4 µg/mL
MIC (Staphylococcus aureus [9]): 4 µg/mL
MIC (Staphylococcus aureus [10]): 4 µg/mL
HC50 at 1 h [11]: > 1280 µg/mL
MIC (Staphylococcus aureus [12]): 4 µg/mL
MIC (Staphylococcus aureus [13]): 4 µg/mL
MIC (Staphylococcus aureus [14]): 4 µg/mL
MIC (Staphylococcus aureus [15]): 4 µg/mL
MIC (Staphylococcus aureus [16]): 4 µg/mL

CCN(CC)C(=O)C[N+](C)(C)CCCOc1ccc2ccc(=O)oc2c1CC=C(C)C.[Br-]
selectivity ratio [4]: > 10
MIC (Staphylococcus aureus [5]): 128 µg/mL
MIC (Staphylococcus aureus [6]): 128 µg/mL
MIC (Escherichia coli): 128 µg/mL
MIC (Staphylococcus aureus [7]): 128 µg/mL
MIC (Staphylococcus aureus [8]): 128 µg/mL
MIC (Staphylococcus aureus [9]): 128 µg/mL
MIC (Staphylococcus aureus [10]): 128 µg/mL
HC50 at 1 h [11]: > 1280 µg/mL
MIC (Staphylococcus aureus [12]): 128 µg/mL
MIC (Staphylococcus aureus [13]): 128 µg/mL
MIC (Staphylococcus aureus [14]): 128 µg/mL
MIC (Staphylococcus aureus [15]): 128 µg/mL
MIC (Staphylococcus aureus [16]): 128 µg/mL

CC(C)=CCc1c(OCCCCC[N+](C)(C)CC(=O)N(CC(C)C)CC(C)C)ccc2ccc(=O)oc12.[Br-]
selectivity ratio [4]: 480
MIC (Staphylococcus aureus [5]): 2 µg/mL
MIC (Staphylococcus aureus [6]): 1 µg/mL
MIC (Escherichia coli): 128 µg/mL
MIC (Staphylococcus aureus [7]): 1 µg/mL
MIC (Staphylococcus aureus [8]): 2 µg/mL
MIC (Staphylococcus aureus [9]): 1 µg/mL
MIC (Staphylococcus aureus [10]): 1 µg/mL
HC50 at 1 h [11]: 960 µg/mL
MIC (Staphylococcus aureus [12]): 1 µg/mL
MIC (Staphylococcus aureus [13]): 2 µg/mL
MIC (Staphylococcus aureus [14]): 1 µg/mL
MIC (Staphylococcus aureus [15]): 1 µg/mL
MIC (Staphylococcus aureus [16]): 1 µg/mL

CC(C)=CCc1c(OCCC[N+](C)(C)CC(=O)N(C(C)C)C(C)C)ccc2ccc(=O)oc12.[Br-]
selectivity ratio [4]: > 40
MIC (Staphylococcus aureus [5]): 16 µg/mL
MIC (Staphylococcus aureus [6]): 16 µg/mL
MIC (Escherichia coli): 128 µg/mL
MIC (Staphylococcus aureus [7]): 16 µg/mL
MIC (Staphylococcus aureus [8]): 16 µg/mL
MIC (Staphylococcus aureus [9]): 16 µg/mL
MIC (Staphylococcus aureus [10]): 16 µg/mL
HC50 at 1 h [11]: > 640 µg/mL
MIC (Staphylococcus aureus [12]): 32 µg/mL
MIC (Staphylococcus aureus [13]): 16 µg/mL
MIC (Staphylococcus aureus [14]): 16 µg/mL
MIC (Staphylococcus aureus [15]): 16 µg/mL
MIC (Staphylococcus aureus [16]): 16 µg/mL

CCCN(CCC)C(=O)C[N+](C)(C)CCCOc1ccc2ccc(=O)oc2c1CC=C(C)C.[Br-]
selectivity ratio [4]: > 40
MIC (Staphylococcus aureus [5]): 32 µg/mL
MIC (Staphylococcus aureus [6]): 32 µg/mL
MIC (Escherichia coli): 128 µg/mL
MIC (Staphylococcus aureus [7]): 16 µg/mL
MIC (Staphylococcus aureus [8]): 32 µg/mL
MIC (Staphylococcus aureus [9]): 32 µg/mL
MIC (Staphylococcus aureus [10]): 16 µg/mL
HC50 at 1 h [11]: > 1280 µg/mL
MIC (Staphylococcus aureus [12]): 32 µg/mL
MIC (Staphylococcus aureus [13]): 32 µg/mL
MIC (Staphylococcus aureus [14]): 32 µg/mL
MIC (Staphylococcus aureus [15]): 32 µg/mL
MIC (Staphylococcus aureus [16]): 32 µg/mL

CCCCCNC(=O)C[N+](C)(C)CCCOc1ccc2ccc(=O)oc2c1CC=C(C)C.[Br-]
selectivity ratio [4]: 75.3
MIC (Staphylococcus aureus [5]): 16 µg/mL
MIC (Staphylococcus aureus [6]): 8 µg/mL
MIC (Escherichia coli): 128 µg/mL
MIC (Staphylococcus aureus [7]): 16 µg/mL
MIC (Staphylococcus aureus [8]): 16 µg/mL
MIC (Staphylococcus aureus [9]): 8 µg/mL
MIC (Staphylococcus aureus [10]): 16 µg/mL
HC50 at 1 h [11]: 1200 µg/mL
MIC (Staphylococcus aureus [12]): 8 µg/mL
MIC (Staphylococcus aureus [13]): 16 µg/mL
MIC (Staphylococcus aureus [14]): 16 µg/mL
MIC (Staphylococcus aureus [15]): 8 µg/mL
MIC (Staphylococcus aureus [16]): 8 µg/mL

CC(C)=CCc1c(OCCCC[N+](C)(C)CC(=O)N(C(C)C)C(C)C)ccc2ccc(=O)oc12.[Br-]
selectivity ratio [4]: 79.2
MIC (Staphylococcus aureus [5]): 32 µg/mL
MIC (Staphylococcus aureus [6]): 16 µg/mL
MIC (Escherichia coli): 128 µg/mL
MIC (Staphylococcus aureus [7]): 16 µg/mL
MIC (Staphylococcus aureus [8]): 16 µg/mL
MIC (Staphylococcus aureus [9]): 16 µg/mL
MIC (Staphylococcus aureus [10]): 16 µg/mL
HC50 at 1 h [11]: 1270 µg/mL
MIC (Staphylococcus aureus [12]): 16 µg/mL
MIC (Staphylococcus aureus [13]): 32 µg/mL
MIC (Staphylococcus aureus [14]): 16 µg/mL
MIC (Staphylococcus aureus [15]): 16 µg/mL
MIC (Staphylococcus aureus [16]): 16 µg/mL
